The values that follow are results of earlier work, collected in patent US20050214353A1, “Transdermal therapeutic system” (priority 2001, published 2005).

Molecules are shown by their SMILES.

For the compound `CCN(CC)C(=O)N[C@H]1C=C2c3cccc4[nH]cc(c34)C[C@H]2N(C)C1` [lisuride, 3-(9,10-didehydro-6-methyl-8α-ergolinyl)-1,1-diethyl urea], the “half-life in the blood” value was “ca. 2 hrs”.
